Assay results reported in patent US20150089682A1, “ALS Inhibitor Herbicide Tolerant B. Napus Mutants” (priority 2012, published 2015).
Substitutions are numbered along the chain they refer to. Names may count otherwise.

B1: Wild-type: Arabidopsis thaliana wild-type ALS expressed in Escherichia coli, crude protein extract (protein, UniProt P17597 56-670, looked up)
Acetolactate synthase, …: SSSPSSISAVLNTTTNVTTTPSPTKPTKPETFISRFAPDQPRKGADILVEALERQGVETVFAYPGGASMEIHQALTRSSSIRNVLPRHEQGGVFAAEGYARSSGKPGICIATSGPGATNLVSGLADALLDSVPLVAITGQVPRRMIGTDAFQETPIVEVTRSITKHNYLVMDVEDIPRIIEEAFFLATSGRPGPVLVDVPKDIQQQLAIPNWEQAMRLPGYMSRMPKPPEDSHLEQIVRLISESKKPVLYVGGGCLNSSDELGRFVELTGIPVASTLMGLGSYPCDDELSLHMLGMHGTVYANYAVEHSDLLLAFGVRFDDRVTGKLEAFASRAKIVHIDIDSAEIGKNKTPHVSVCGDVKLALQGMNKVLENRAEELKLDFGVWRNELNVQKQKFPLSFKTFGEAIPPQYAIKVLDELTDGKAIISTGVGQHQMWAAQFYNYKKPRQWLSSGGLGAMGFGLPAAIGASVANPDAIVVDIDGDGSFIMNVQELATIRVENLPVKVLLLNNQHLGMVMQWEDRFYKANRAHTFLGDPAQEDEIFPNMLLFAAACGIPAARVTKKADLREAIQTMLDTPGPYLLDVICPHQEHVLPMIPSGGTFNDVITEGDGRIKY
B2: W574L: Arabidopsis thaliana W574L-mutant ALS expressed in Escherichia coli, crude protein extract (protein, UniProt P17597 56-670, looked up, variant W574L)
Acetolactate synthase, …: B1 Acetolactate synthase, … with W519L
B3: S653N: Arabidopsis thaliana S653N-mutant ALS expressed in Escherichia coli, crude protein extract (protein, UniProt P17597 56-670, looked up, variant S653N)
Acetolactate synthase, …: B1 Acetolactate synthase, … with S598N
B4: P197S: Arabidopsis thaliana P197S-mutant ALS expressed in Escherichia coli, crude protein extract (protein, UniProt P17597 56-670, looked up, variant P197S)
Acetolactate synthase, …: B1 Acetolactate synthase, … with P142S

Experiments:
[1] = test system: spring oilseed rape homozygous for HETO108 and HETO121; assay: Herbicide tolerance in the field, visible phytotoxicity; type: in vivo, Brassica napus; conditions: HETO108-HETO121, field, 18 days after application, 0%=no phytotoxic effects, 100%=all plants killed
From the text: (§1) Seeds of spring oilseed rape homozygous for HETO108 and HETO121 were sown in a field according to typical practical agricultural methods. The registered spring oilseed rape variety ABILITY served as a comparison. All plants were cultivated up to BBCH stage 14 (four true leaves of the oilseed rape plants). Afterwards, the herbicides mentioned in table 2 have been applied to the oilseed rape plants by using specific spray equipment for small plot applications. The water amount used was 200 L/ha.

[2] = test system: spring oilseed rape variety ABILITY; assay: as above; type: in vivo, Brassica napus; conditions: ABILITY, field, 18 days after application, 0%=no phytotoxic effects, 100%=all plants killed
From the text: as §1

[3] = target: T1, Arabidopsis thaliana P197S-mutant ALS (Arabidopsis thaliana, UniProt P17597, E575Q/P197S); assay: biochemical; conditions: for Resistance Factor P197S: relative to WT, from measured pI50
T1 construct: vector-encoded N-terminal fusion of pET-32a(+) (Trx/His/S tag by own knowledge); made in house; host or cells: Escherichia coli AD494
Method: (§2) Bacteria were grown at 37° C. in LB-medium containing 100 mg/1 carbenicillin and 25 mg/1 canamycin, induced with 1 mM isopropyl-β-D-thiogalactopyranoside at an OD600 of 0.6, cultivated for 16 hours at 18° C. and harvested by centrifugation. Bacterial pellets were resusupended in 100 mM sodium phosphate buffer pH 7.0 containing 0.1 mM thiamine-pyrophosphate, 1 mM MgCl2, and 1 μM FAD at a concentration of 1 gram wet weight per 25 ml of buffer and disrupted by sonification. The crude protein extract obtained after centrifugation was used for ALS activity measurements.
(§3) Assays were initiated by adding enzyme and terminated after 75 min incubation at 30° C. by the addition to 40 μl 0.5 M H2SO4. […] Reaction velocities were tiffed to the Michalis-Menten equation with the XLFit curve fitting program.

[4] = target: T2, Arabidopsis thaliana S653N-mutant ALS (Arabidopsis thaliana, UniProt P17597, E575Q/S653N); assay: biochemical
T2 construct: vector-encoded N-terminal fusion of pET-32a(+) (Trx/His/S tag by own knowledge); made in house; host or cells: Escherichia coli AD494
Method: as §2, §3

[5] = target: T3, Arabidopsis thaliana W574L-mutant ALS (Arabidopsis thaliana, UniProt P17597, E575Q/W574L); assay: biochemical; conditions: for Resistance Factor W574L: relative to WT, from measured pI50
T3 construct: vector-encoded N-terminal fusion of pET-32a(+) (Trx/His/S tag by own knowledge); made in house; host or cells: Escherichia coli AD494
Method: as §2, §3

[6] = target: T4, Arabidopsis thaliana wild-type ALS (Arabidopsis thaliana, UniProt P17597, E575Q); assay: biochemical; conditions: measured; crude extract of E. coli expressed enzyme; read-out: pI50 WT (converted)
T4 construct: vector-encoded N-terminal fusion of pET-32a(+) (Trx/His/S tag by own knowledge); made in house; host or cells: Escherichia coli AD494
Method: as §2, §3

[7] = target: T5, mixture of P197S and W574L ALS enzymes (Arabidopsis thaliana, UniProt P17597); type: biochemical; conditions: for Resistance Factor P197S & W574L: relative to WT, calculated
T5 construct: crude E. coli extract was used
Method: as §3
(§4) To characterize the response of a mixture of two different ALS enzymes to a given ALS inhibitor the following assumptions were made: • a inhibition is competitive and reversible • b. in the absence of inhibitor, equal activities of the ALS (mutant) enzymes 1 and 2 are present
(§5) Using experimentally determined pI50-values for various ALS-inhibiting herbicides, enzyme activities at different inhibitor concentrations were calculated (see Theory) for each ALS enzyme. Total ALS activity at any given inhibitor concentration is the sum of the activity of (mutant) enzyme 1 and (mutant) enzyme 2. If the experimentally determined pI50-value was <4, pI50=3.0 was used for the calculations. If the calculated pI50-value was 3.0, the pI50 was redefined as <4.

[8] = target: T6, mixture of S653N and W574L ALS enzymes (Arabidopsis thaliana, UniProt P17597); type: biochemical; conditions: for Resistance Factor S653N & W574L: relative to WT, calculated
T6 construct: crude E. coli extract was used
Method: as §3, §4, §5

[9] = test system: ALS enzyme in leaves of wild-type Brassica lines; assay: ALS enzyme activity in leaves; type: biochemical, Brassica napus; conditions: wild-type leaves (row IV) compared with mutant lines (rows I-III), FIG. 3
Method: (§6) The inhibitory effect of ALS inhibiting herbicides on ALS enzymes encoded by the different mutant AHAS alleles was tested in leaf material essentially as described by Shimizu et al, 2008, Plant Physiol. 147:1976.

[10] = test system: ALS enzymes in leaves of Brassica lines homozygous for HETO108, HETO121 or both; assay: ALS enzyme activity in leaves; type: biochemical, Brassica napus; conditions: FIG. 3
Method: as §6

[11] = Kinetic parameters of enzymatic activity of AHAS mutants; type: biochemical, Arabidopsis thaliana; conditions: pyruvate varied 0-120 mM
Method: as §2, with “The coding sequences of the Arabidopsis thaliana wild-type and P197S-, W574L-, and S653N-mutant ALS genes were cloned into Novagen pET-32a(+) vectors and the vectors transformed into Escherichia coli AD494 according to the instructions of the manufacturer. Bacteria were” for “Bacteria were”
ALS assays were carried out in 96-well microtiter plates using a modification of the procedure described by Ray (1984), Plant Physiol 75:827-831. The reation mixture contained 20 mM potassium phosphate buffer pH 7.0, 20 mM sodium pyruvate, 0.45 mM thiamine-pyrophosphate, 0.45 mM MgCl2, 9 μM FAD, ALS enzyme and various concentrations of ALS inhibitors in a final volume of 90 μl. Assays were initiated by adding enzyme and terminated after 75 min incubation at 30° C. by the addition to 40 μl 0.5 M H2SO4. […] The pI50 values measured for the different mutant AHAS proteins and calculated for the mixtures of two different AHAS enzymes are shown in Table 3. […] Reaction velocities were tiffed to the Michalis-Menten equation with the XLFit curve fitting program.

[12] = Brassica napus, topical, 432 h, AI dose rate 50 gai/ha, read-out: % phytotox
[13] = calculated for a mixture of equal activities of the two enzymes, pI50=3.0 used where measured <4

Row | Molecule | Resistance Factor P197S [3] | Resistance Factor W574L [5] | Resistance Factor P197S & W574L [7] | Resistance Factor S653N & W574L [8] | inhibition of ALS enzyme activity in leaves [9] | Km [11] | Vmax [11] | also measured
1 | COc1cc(OC)nc(NC(=O)NS(=O)(=O)c2cc(NC=O)ccc2C(=O)N(C)C)n1 [Foramsulfuron, foramsulfuron] | 16 | 7943 | 398 | 316 | inhibited at lower concentrations of the herbicides than in leaves comprising the mutant AHAS alleles |  |  | pest or weed control at 50 g/ha [1, 12]: 28%; pest or weed control at 50 g/ha [2, 12]: 99%; IC50 ([3]; measured, crude extract of E. coli expressed enzyme, read-out: pI50 P197S (converted)): 100 nM; IC50 ([4]; measured, crude extract of E. coli expressed enzyme, read-out: pI50 S653N (converted)): 63.1 nM; Resistance Factor S653N ([4]; relative to WT, from measured pI50): 10; IC50 ([5]; measured, crude extract of E. coli expressed enzyme, read-out: pI50 W574L (converted)): 50100 nM; IC50 [6]: 6.31 nM; pI50 P197S & W574L [7, 13]: 5.6; pI50 S653N & W574L [8, 13]: 5.7; tolerance of ALS activity in leaves by mutation ([10]; P197S (row II) compared with W574L (row III) and both (row I)): the tolerance in lines with the P197S mutation (row II) is lower than the tolerance in lines with the W574L mutation (row III) and with both the P197S and W574L mutation (row I)
2 | COC(=O)c1csc(C)c1S(=O)(=O)NC(=O)n1nc(OC)n(C)c1=O [Thiencarbazone-methyl, thiencarbazone-methyl] | 1259 | 1259 | 1259 | 316 | inhibited at lower concentrations of the herbicides than in leaves comprising the mutant AHAS alleles |  |  | % phytotox ([1]; AI dose rate 30 gai/ha): 3%; % phytotox ([2]; AI dose rate 30 gai/ha): 100%; herbicide tolerance of ALS activity in leaves, TCM compared with FS ([10]; mutant lines (rows I-III)): the herbicide tolerance is higher for TCM than for FS
3 | B1 |  |  |  |  |  | 2.1 ± 0.1 mM | 42.7 ± 1.3 ΔE/min mg | 
4 | B2 |  |  |  |  |  | 6.9 ± 0.2 mM | 54.4 ± 2.8 ΔE/min mg | 
5 | B3 |  |  |  |  |  | 5.8 ± 0.4 mM | 32.0 ± 1.4 ΔE/min mg | 
6 | B4 |  |  |  |  |  | 5.5 ± 0.8 mM | 50.0 ± 6.1 ΔE/min mg | 
